The values below come from patent publication US7022333B2 (priority 2001, dated 2006).

The subject of this assay is S. aureus FRI-1187. In kind it is cell-based, Staphylococcus aureus.

Take `OCCc1ccccc1` [Phenylethyl alcohol, phenylethyl alcohol]: the “amount of exotoxin production from the FRI-1187 culture” value was “significantly reduced”. Also, the “ELISA: TSST-1 ng/OD unit” value (0.5% test compound, S. aureus FRI-1187, Example 5) was “none”.
